# Assay results as given in patent US20040010018A1, “Treatment of neuropathic pain” (priority 2002, published 2004).
# Entries after “also recorded” stand apart in the source; their conditions may differ. Where a name gives a salt, the structure may show the parent alone.
# Assays:
# [1] = given systemically (i.p.); cited from earlier work
# [2] = observed side effects / behaviors after injection in neuropathic rats; format: in vivo, rat
# [3] = system: neuropathic pain (mechanical allodynia); test: mechanical allodynia (von Frey) in the rat spinal nerve ligation model of neuropathic pain; format: in vivo; details: for effect of antagonist pretreatment on A-85380 induced anti-allodynia: A-85380 0.75 μmol/kg i.p.
# Excerpt: Under halothane anesthesia, the L5 and L6 spinal nerves were tightly ligated in the manner described previously by Chung et al. (Kim S. H., Chung J. M., An experimental model for peripheral neuropathy produced by segmental spinal nerve ligation in the rat. Pain 1992; 50:355-363.). Briefly, an incision was made on the dorsal portion of the hip, and the muscle was blunt dissected to reveal the spinal processes. The L6 transverse process was removed, and the left L5 and L6 spinal nerves were tightly ligated with 5.0 braided silk suture. The wound was cleaned, the membrane sewn with 4.0 dissolvable Vicryl suture and the skin closed with wound clips.
# Implantation of the DRG catheters was performed immediately following nerve ligation, with animals maintained under halothane for the entire procedure (35-40 minutes). Catheters were constructed of PE 20 with small pieces of tygon tubing cemented along the catheter to allow for suture anchoring points during surgery. The left L5 DRG was exposed by removing the posterior articular process of the L5 vertebra. Gelfoam was inserted into the cavity to prevent the catheter from damaging the ganglion. The catheter was sutured to the muscle and fascia, then run subcutaneously to exteriorize between the shoulder blades. Saline was infused into the catheter, and it was heat sealed.
# The implantation of i.c.v. cannulae were conducted under sodium pentobarbital (50 mg/kg, i.p. Nembutal) anesthesia with nerve ligation occurring just after the implantation; animals were maintained under anesthesia for the entire procedure (40-45 minutes). Animals were implanted with a 22 gauge guide cannulae (Plastics One, Roanoke Va.) cut to 6 mm. The stereotaxic coordinates from bregma were 1.0 mm posterior, 1.6 mm lateral, and 4.5 ventral (Paxinos G. and Watson C., The rat brain in stereotaxic coordinates. New York: Academic Press, 1997). Three skull screws were attached for stability, and the implant was covered with cranioplastic acrylic.
# For i.c.v. (intracerebroventricular) infusion, chlorisondamine (10 μg) was dissolved in 5 μl phosphate buffered saline and infused by syringe pump at a rate of 5 μl/min. The infusion was performed 24 hours prior to testing in order to reduce stress to the animals immediately prior to behavioral testing.
# For all other routes of administration including intraperotineal (i.p.), intradermal (i.d.) or onto the DRG, chlorisondamine was dissolved in saline. The final volumes for i.p. injections were 1 ml/kg, for i.d. were 50 μl and for DRG injections were 10 μl. All injections were made by hand held syringe.
# For the assessment of neuropathic pain, mechanical allodynia in the affected paw of animals who had undergone spinal nerve ligation was evaluated using von Frey filaments. As described previously (Chaplan et al, Quantitative assessment of tactile allodynia in the rat paw. J Neurosci Meth, 1994; 53:55-62), two weeks following surgery, rats were acclimated to the testing box which was constructed of plexiglass with a wire mesh floor to allow access to the planter surface of the hind paws. Using the Dixons Up-Down method, a baseline level of allodynia was taken with allodynia defined as a withdrawal threshold <4 g. Test compounds were then administered and subsequent withdrawal thresholds determined.
# For spinal nerve ligation experiments, the timing of antagonist administration depended upon the route of administration. With i.c.v. administration, chlorisondamine or its vehicle was given 24 hours prior to further manipulation. On the day of the experiment, a baseline allodynia score was determined and then A-85380 or its vehicle control was given and measures taken at 15, 30 and 60 minutes post agonist injection. Dose response curves for i.p., i.d. and DRG administration were also determined using this time line. […]
# persistent pain = test: formalin model of persistent pain (phase two); format: in vivo, rat; details: A-85380 0.75 μmol/kg i.p.
# Method: The formalin test was used as an assessment of persistent pain. The method, described previously (Bannon et al. 1998) is briefly as follows. Following acclimation to the test environment, 50 μl of a 5% formalin solution was injected subcutaneously into the dorsal surface of one of the rear paws. Only phase two, defined as the 20 minute period from 30 to 50 minutes post formalin injection, was scored for nocifensive behaviors including flinching, licking, and biting.
# For formalin experiments, chlorisondamine or its vehicle was infused either 24 h or 40-50 minutes prior to further manipulation. A-85380 was then injected and, 5 minutes later, formalin was injected into the paw. Measures were taken between 30 and 50 minutes post formalin injection.
# The effect of centrally and systemically administered chlorisondamine in a model of persistent pain was examined. Using phase two of the formalin model of persistent pain, chlorisondamine (10 μg) was administered i.c.v. 24 hours prior to the systemic administration of A-85380.
# acute thermal pain [4] = test: rat paw withdrawal model of acute thermal pain, normal rats; format: in vivo; details: chlorisondamine 0.4 μmol/kg i.p. 30 min prior, A-85380 0.75 μmol/kg i.p.
# Excerpt: For the assessment of acute pain, a paw thermal stimulator was used to evaluate nociceptive responses to an acute thermal stimulus (Anesthesiology Research Laboratory, Department of Anesthesiology, University of California at San Diego, La Jolla, Calif.). The device and behavioral procedure have been described previously (Hargreaves et al., A new and sensitive method for measuring thermal nociception in cutaneous hyperalgesia, Pain 1988, 32:77-88; Dirig et al., Characterization of variables defining hind paw withdrawal latency evoked by radiant thermal stimuli, J. Neurosci. Meth. 1997; 76:183-191). Briefly, rats were placed in Plexiglas boxes on a glass surface maintained at 30° C. and allowed to acclimate for 30 minutes. The measured nociceptive response was the latency to withdraw the hind paw when heated by light from a focused projector lamp (current set at 4.8 A). The final score was the mean of the latencies for the left and right paw. […]
# (§1) For acute thermal pain experiments, a baseline withdrawal threshold was determined, and then chlorisondamine or its vehicle was administered. […]
# The effect of systemically administered chlorisondamine in a model of acute thermal pain was examined. […] The effect of systemically administered chlorisondamine (0.4 μmol/kg, i.p.) on A-85380 (0.75 μmol/kg, i.p.) was assessed.
# acute thermal pain [5] = test: rat paw withdrawal model of acute thermal pain using neuropathic rats; format: in vivo; details: chlorisondamine 0.4 μmol/kg i.p., A-85380 0.75 μmol/kg i.p.
# Excerpt: For the assessment of acute pain, a paw thermal stimulator was used to evaluate nociceptive responses to an acute thermal stimulus (Anesthesiology Research Laboratory, Department of Anesthesiology, University of California at San Diego, La Jolla, Calif.). The device and behavioral procedure have been described previously (Hargreaves et al., A new and sensitive method for measuring thermal nociception in cutaneous hyperalgesia, Pain 1988, 32:77-88; Dirig et al., Characterization of variables defining hind paw withdrawal latency evoked by radiant thermal stimuli, J. Neurosci. Meth. 1997; 76:183-191). Briefly, rats were placed in Plexiglas boxes on a glass surface maintained at 30° C. and allowed to acclimate for 30 minutes. The measured nociceptive response was the latency to withdraw the hind paw when heated by light from a focused projector lamp (current set at 4.8 A). The final score was the mean of the latencies for the left and right paw. To avoid tissue damage, the maximal response latency prior to automatic shutoff of the lamp was 20.5 sec.
# as §1
# To address this concern, neuropathic rats were assessed in the acute thermal model of paw withdrawal. […]
# [6] = chlorisondamine 10 μg i.c.v. 24 hours prior
smiles,measurement,setting,value
"Cl.Cl.c1cncc(OC[C@@H]2CCN2)c1 [A-85380, 3-(2(S)-azetidinylmethoxy)pyridine dihydrochloride]",crossing of the blood brain barrier,[1],readily crosses the blood brain barrier
same,behaviors induced immediately following injection,"[2]; 0.5-1.0 μmol/kg, i.p.",prostration and ataxia
same,time point by which prostration and ataxia abated,"[2]; 0.5-1.0 μmol/kg, i.p.",≤ 15 min
same,side effects with peripheral NNRs blocked,"[2]; chlorisondamine 0.4 μmol/kg i.p. pretreatment, A-85380 at increased dose",significant increase in side effects
same,side effects with central NNRs blocked,"[2]; chlorisondamine 10 μg i.c.v. pretreatment, A-85380 at increased dose",almost no side effects
same,side effects accompanying the reduction in allodynia,"[2]; given systemically (i.p.), no antagonist","prostration, ataxia, bracing and dyspnea"
same,anti-allodynia (paw withdrawal threshold),[3]; 10 μg infused onto the L5 DRG,significant anti-allodynia
same,duration of anti-allodynia,[3]; 10 μg infused onto the L5 DRG,15 min
same,anti-allodynia (paw withdrawal threshold),[3]; 20 μg infused onto the L5 DRG,significant anti-allodynia
same,duration of anti-allodynia,[3]; 20 μg infused onto the L5 DRG,30 min
same,anti-allodynia in the affected paw (paw withdrawal threshold),"[3]; 10, 20 and 50 μg/rat i.d. into plantar surface of contralateral (unaffected) paw, dihydrochloride",all three doses of A-85380 induced a significant anti-allodynia; also recorded: equivalent or greater anti-allodynia
same,anti-allodynia in the affected paw (paw withdrawal threshold),"[3]; 10, 20 and 50 μg/rat i.d. into plantar surface of ipsalateral (affected) paw, dihydrochloride",only the 50 μg dose of A-85380 had an anti-allodynic effect; also recorded: small but significant anti-allodynia
same,dose required for significant reduction in allodynia,[3]; central NNRs blocked with chlorisondamine 10 μg i.c.v.,3 µmol/kg
same,reduction in allodynia with peripheral NNRs blocked,"[3]; chlorisondamine 0.4 μmol/kg i.p. pretreatment, systemic A-85380",significant reduction in allodynia
same,reduction in allodynia with central NNRs blocked,"[3]; chlorisondamine 10 μg i.c.v. pretreatment, systemic A-85380",significant reduction in allodynia
same,"potency to increase paw withdrawal threshold, i.p. compared with i.d. administration","[3]; doses converted to equivalent systemic dose, 15 minute time point",similar
same,"potency to increase paw withdrawal threshold, DRG administration compared with i.p. and i.d.","[3]; doses converted to equivalent systemic dose, 15 minute time point, dihydrochloride",decidedly more potent; also recorded: most potent
same,dose required for significant reduction in allodynia,[3]; given without an antagonist,0.75 µmol/kg
same,anti-allodynia (paw withdrawal threshold),"[3]; infused directly onto the L5 DRG, different doses",dose-dependent anti-allodynic effect
same,dose required for significant reduction in allodynia,[3]; peripheral NNRs blocked with chlorisondamine 0.4 μmol/kg i.p.,1.5 µmol/kg
same,anti-allodynia (paw withdrawal threshold),"[3]; systemically administered (i.p.), no antagonist, dihydrochloride","significant, dose-dependent decrease; also recorded: dose dependent anti-allodynia; also recorded: dose-dependent anti-allodynia"
"O=C(NO)c1cncc(N2C[C@H]3CNC[C@H]32)c1 [A-420503, (IR, 5S) 5-(3,6-diazabicyclo [3.2.0]hept-6-yl)-N-hydroxy-nicotinamide]",side effects,"[2]; 62 μmol/kg, i.p.",without any notable side effects
same,anti-allodynia,"[3]; 62 μmol/kg, i.p.",significant anti-allodynia
same,effects at the DRG after pretreatment with an NMR antagonist,[3]; DRG administration,blocked
same,anti-allodynia,"[3]; at the DRG, equivalent to 4.77 μmol/kg i.p.",significant anti-allodynia
"C[N+](C)(C)CCCCCC[N+](C)(C)C [Hexamethonium, hexamethonium]",effect of antagonist pretreatment on A-85380 induced anti-allodynia,[3]; hexamethonium 19 μmol/kg i.p. 30 minutes prior,blocked
"CNC1(C)C2CCC(C2)C1(C)C (stereo not drawn) [Mecamylamine, mecamylamine hydrochloride]",effect of antagonist pretreatment on prostration and ataxia following A-85380 injection,[2]; mecamylamine 1 μmol/kg i.p. 30 minutes prior to A-85380,blocked
same,effect of antagonist pretreatment on A-85380 induced anti-allodynia,"[3]; mecamylamine 1 μmol/kg i.p. 30 minutes prior, hydrochloride",completely blocked
same,effect of antagonist pretreatment on A-85380 induced anti-allodynia,"[3]; mecamylamine 1 μmol/kg i.p. 30 minutes prior, listed as mecamylamine, hydrochloride",full blockade
"C[N+](C)(C)CC[N+]1(C)Cc2c(Cl)c(Cl)c(Cl)c(Cl)c2C1 [chlorisondamine, chlorisondamine diiodide]","effect of antagonist pretreatment on A-85380 induced analgesia (flinches, phase two)",persistent pain; chlorisondamine 0.4 μmol/kg i.p. 40-50 minutes prior to formalin,no significant attenuation; also recorded: no significant effect
same,"effect of antagonist pretreatment on A-85380 induced analgesia (flinches, phase two)",persistent pain; [6],completely blocked
same,effect of antagonist pretreatment on A-85380 induced antinociception (paw withdrawal latency),acute thermal pain [4],no effect; also recorded: completely ineffective
same,effect of antagonist pretreatment on A-85380 induced antinociception (paw withdrawal latency),acute thermal pain [5],did not alter; also recorded: does not alter
same,effect of antagonist pretreatment on A-85380 induced anti-allodynia,[3]; chlorisondamine 0.4 μmol/kg i.p. 30 minutes prior,completely blocked
same,effect of antagonist pretreatment on anti-allodynia induced by A-85380 infused onto the DRG,"[3]; chlorisondamine 0.4 μmol/kg i.p. 30 minutes prior, A-85380 20 μg onto DRG",completely blocked
same,effect of antagonist pretreatment on A-85380 induced anti-allodynia,[3]; [6],completely blocked
